# Patent US20240261274A1, “TREATMENT OF MYC-DRIVEN CANCERS WITH GSPT1 DEGRADERS” (MONTE ROSA THERAPEUTICS, INC., priority 2021, published 2024)
# Tests used:
# GSPT1 [1] = target: T1, GSPT1 (Homo sapiens, UniProt P15170+Q96SW2); assay: GSPT1 levels in breast cancer tumors after compound 8 (western blotting); format: in vivo; set-up: endogenous in cells; conditions: three consecutive doses at 37 and 75 mpk; tumors harvested 24 hr post third dose; MDA-MB-468, MDA-MB-231, MDA-MB-436, CAL51
# Experimental: Representative examples below show the levels of GSPT1 in MDA-MB-468 (ATCC HTB-132), MDA-MB-231 (ATCC HTB-26), MDA-MB-436 (ATCC HTB-130) and CAL51 (DSMZ-ACC-302) tumors (in lanes from top down as indicated) following three consecutive doses of compound 8 at 37 (right panel) and 75 mpk (middle panel) or administration of vehicle only (left panel). GADPH levels as control is shown in the lowest lane. Tumors were harvested 24 hr post third dose and levels of GSPT1 were determined by western blotting as indicated. Tumors were collected from the in vivo efficacy studies described in the previous FIG. 7A.
# GSPT1 [2] = target: T1, GSPT1; assay: GSPT1 levels in NCI-H1155 tumors by western blotting (compound 210); format: in vivo, mice; set-up: from tissue; host or cells: NCI-H1155 subcutaneous xenograft tumours from BALB/c nude mice; conditions: all three dose levels, 6 hours after the third dose
# Experimental: GSPT1 levels in tumors were determined by western blotting 6 hours after the third dose. Western blotting was performed as described previously using GAPDH as loading control.
# [3] = tested on: NCI-H1155 xenograft (human non small cell lung cancer); assay: NCI-H1155 xenograft efficacy study (compound 210); format: in vivo, BALB/c nude mice
# Experimental: For the NCI-H1155 xenograft study, cells (human non small cell lung cancer, ATCC CRL-5818) were maintained in vitro as suspension culture in ATCC-formulated DMEM:F12 Medium supplemented as recommended by the provider and kept at 37° C. in an atmosphere of 5% CO2 in air. Cells (0.5 million) were resuspended in 0.2 mL of PBS with Matrigel (50:50) and inoculated into female BALB/c nude mice, 6-8 weeks old, and allowed to grow to 150 mm^3 in size. Mice were dosed orally with either vehicle or compound 210 at 1 or 3 mg per kilogram daily (filled squares and filled triangles, respectively) or 6 mg per kilogram for 5 continuous days followed by 9 days treatment holidays (5 On-9 off) (filled inverted triangles). Compound formulations were prepared fresh daily in 5% vDMSO/95% (30% w/v HP-β-CD in water). Gemcitabine dosed at 40 mg per kilogram, IP, Q4D×5 was used as a positive control (filled rhombi). For this study, mice were dosed for 21 days with tumor volumes measured every 3 days.
# [4] = tested on: human cell line NCI-H1770 xenograft; assay: N-Myc-driven mouse xenograft model, NCI-H1770, compound 210 oral; format: in vivo
# [5] = tested on: MM1 S multiple myeloma cell line derived xenograft; assay: MM1 S multiple myeloma CDX efficacy study; format: in vivo, immunodeficient mice; conditions: oral daily 1, 3 and 10 mg/kg
# Experimental: Cell line derived xenograft (CDX) models were produced for the MM1 S multiple myeloma (MM) cell line in immunodeficient mice. Oral dosing of Compound 345 was performed daily at doses of 1 mg/kg, 3 mg/kg, and 10 mg/kg as well as lenalidomide at 50 mg/kg and a no-drug vehicle control. Tumor volumes were measured (mm^3) at regular intervals over the course of 20 to 50 days depending on the animal.
# In vivo efficacy study: NCI-H1155, MM1 S, WSU-DLCL2, DOHH-2 cells were maintained in vitro in individual medium and conditions as recommended by the providers and incubated at 37° C. in an atmosphere of 5% CO2 in air. 0.5 million (NCI-H1155), 10 million (MM1S) or 5 million (WSU-DLCL2 and DOHH-2) cells were resuspended in typically 0.1-0.2 mL of PBS with Matrigel (50:50) and were inoculated into 6-8 weeks old BALB/c nude female (NCI-H115, WSU-DLCL2), NOD/SCID (MM1S) or CB-17SCID (DOHH-2) mice and allowed to grow to 150-200 mm3 in size. Mice were dosed orally (PO) and daily (QD) with either vehicle or Compound 345 typically at 1.0 mg/kg, 3.0 mg/kg and 10 mg/kg. […] Tumor volumes were measured at least twice weekly during the treatment period using a caliper and the volume was expressed in mm3 using the formula: V=0.5 a×b2 where a and b were the long and short diameters of the tumor, respectively. […] Data are expressed as the mean±SEM. All data was analyzed using GraphPad Prism 8.1.2 (GraphPad).
# T1 sequence (P15170 whole entry): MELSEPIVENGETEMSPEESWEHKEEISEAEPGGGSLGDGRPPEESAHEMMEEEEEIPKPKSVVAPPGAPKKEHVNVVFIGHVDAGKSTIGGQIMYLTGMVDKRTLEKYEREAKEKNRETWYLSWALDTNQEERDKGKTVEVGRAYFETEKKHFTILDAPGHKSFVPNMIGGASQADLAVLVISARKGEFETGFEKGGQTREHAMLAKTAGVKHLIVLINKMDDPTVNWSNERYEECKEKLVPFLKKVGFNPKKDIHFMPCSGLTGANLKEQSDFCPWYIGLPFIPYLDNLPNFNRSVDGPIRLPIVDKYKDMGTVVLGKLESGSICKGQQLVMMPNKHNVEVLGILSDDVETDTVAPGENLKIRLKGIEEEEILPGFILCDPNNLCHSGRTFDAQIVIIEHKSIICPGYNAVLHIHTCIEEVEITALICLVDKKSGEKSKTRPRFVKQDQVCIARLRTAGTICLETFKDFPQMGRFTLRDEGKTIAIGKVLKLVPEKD
# T1 sequence (Q96SW2 whole entry): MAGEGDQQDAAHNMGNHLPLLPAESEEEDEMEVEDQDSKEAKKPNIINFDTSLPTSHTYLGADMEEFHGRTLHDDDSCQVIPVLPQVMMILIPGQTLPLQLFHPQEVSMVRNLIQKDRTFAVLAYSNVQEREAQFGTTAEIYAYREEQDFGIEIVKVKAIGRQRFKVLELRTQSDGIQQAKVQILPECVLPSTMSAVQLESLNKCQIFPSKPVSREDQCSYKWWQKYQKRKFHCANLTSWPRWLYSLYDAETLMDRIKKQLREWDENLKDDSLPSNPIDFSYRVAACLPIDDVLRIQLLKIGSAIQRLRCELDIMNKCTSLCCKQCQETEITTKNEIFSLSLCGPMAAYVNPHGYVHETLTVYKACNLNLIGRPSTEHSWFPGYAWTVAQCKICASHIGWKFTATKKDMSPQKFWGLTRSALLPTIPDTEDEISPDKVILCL
# T1 sequence (Q16531 whole entry partner): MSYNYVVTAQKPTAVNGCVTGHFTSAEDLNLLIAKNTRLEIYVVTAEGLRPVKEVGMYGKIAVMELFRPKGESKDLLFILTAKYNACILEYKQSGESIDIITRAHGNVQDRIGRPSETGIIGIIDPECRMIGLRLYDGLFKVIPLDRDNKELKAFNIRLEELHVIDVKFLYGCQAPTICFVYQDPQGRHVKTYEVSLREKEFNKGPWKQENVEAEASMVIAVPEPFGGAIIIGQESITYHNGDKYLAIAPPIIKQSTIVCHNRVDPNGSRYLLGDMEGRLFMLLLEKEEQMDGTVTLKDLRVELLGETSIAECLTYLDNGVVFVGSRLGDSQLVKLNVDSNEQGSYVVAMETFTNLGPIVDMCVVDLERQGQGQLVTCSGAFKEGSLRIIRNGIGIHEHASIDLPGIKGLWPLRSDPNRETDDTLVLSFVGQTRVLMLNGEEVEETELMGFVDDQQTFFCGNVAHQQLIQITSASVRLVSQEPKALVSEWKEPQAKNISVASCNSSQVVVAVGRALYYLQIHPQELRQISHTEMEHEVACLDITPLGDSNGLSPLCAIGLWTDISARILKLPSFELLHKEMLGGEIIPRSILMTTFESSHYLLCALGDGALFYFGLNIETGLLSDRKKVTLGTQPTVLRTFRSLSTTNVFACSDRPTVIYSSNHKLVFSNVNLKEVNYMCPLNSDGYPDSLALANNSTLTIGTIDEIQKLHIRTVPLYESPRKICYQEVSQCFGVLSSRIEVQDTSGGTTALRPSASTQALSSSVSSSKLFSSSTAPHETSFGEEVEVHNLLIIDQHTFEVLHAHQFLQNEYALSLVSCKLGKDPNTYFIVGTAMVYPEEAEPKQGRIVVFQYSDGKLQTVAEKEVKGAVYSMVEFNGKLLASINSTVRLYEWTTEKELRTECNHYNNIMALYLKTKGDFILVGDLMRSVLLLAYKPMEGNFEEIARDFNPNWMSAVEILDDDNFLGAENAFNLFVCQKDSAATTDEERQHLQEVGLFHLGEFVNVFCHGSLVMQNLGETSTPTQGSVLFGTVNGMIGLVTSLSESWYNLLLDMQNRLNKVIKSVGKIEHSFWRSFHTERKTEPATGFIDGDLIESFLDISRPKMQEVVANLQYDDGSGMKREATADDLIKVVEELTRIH
compound,measurement,setting,value
Cc1ccc(NC(=O)NCc2ccc3c(c2)C(=O)N(C2CCC(=O)NC2=O)C3)cc1Cl (centres unmarked) [Compound 8],GSPT1 levels in tumors,GSPT1 [1],robust and dose-dependent degradation of GSPT1 levels in tumors
Cc1ccc(NC(=O)OCc2ccc3c(c2)C(=O)N(C2CCC(=O)NC2=O)C3)cc1Cl (centres unmarked) [Compound 210],GSPT1 degradation in tumors,GSPT1 [2],Complete degradation of GSPT1
same,body weight,"[3]; oral administration, NCI-H1155 xenograft mice",no body weight loss observed
same,tumor growth,"[3]; oral, 1 mg/kg once daily",tumor growth was suppressed for two weeks
same,tumor size,"[3]; oral, 3 mg/kg once daily","tumor size decreased, became undetectable by day eight"
same,tumor size,"[3]; oral, 6 mg/kg five days on and nine days off","tumor size decreased, became undetectable by day eight"
same,tumor size,[4]; 3 mg/kg once daily,tumor size decreased and remained so until the end of the study
same,tumor size,"[4]; 6 mg/kg, five days on and nine days off",tumor size decreased and remained so until the end of the study
same,body weight,[4]; oral administration,no body weight loss observed
same,tumor growth,[4]; oral administration,tumor growth inhibition
"O=C1CCC(N2Cc3ccc(COC(=O)Nc4cc(OC(F)(F)F)ccc4F)cc3C2=O)C(=O)N1 (centres unmarked) [Compound 345, (2-(2,6-dioxopiperidin-3-yl)-3-oxoisoindolin-5-yl)methyl(2-fluoro-5-(trifluoromethoxy)phenyl)carbamate]",tumor volume,[5],anti-tumor activity
